The values below come from paper PMC9430567, “A Small-Molecule Inhibitor of the Anthranilyl-CoA Synthetase PqsA for the Treatment of Multidrug-Resistant Pseudomonas aeruginosa” (Microbiology Spectrum, 2022).

Values after ≈ are worked out from the molar mass of the structure shown.

One test has as its system T1, MDR P. aeruginosa C218.
T1 construct: C218
The test can be described thus: microbe, parasite or virus in culture. Set-up: species or system Pseudomonas aeruginosa C218; CLSI broth micro-dilution MIC, complete inhibition of visible growth. To be noted: Pseudomonas aeruginosa. On the procedure:
MIC determination using the standard micro-dilution method was performed according to the Clinical and Laboratory Standards Institute ([29]). […] Experiments were performed in triplicate.

For the next test, the target named is T2, PqsE (Pseudomonas aeruginosa, UniProt P20581).
T2 construct: His6-tagged PqsE (pET30a-His6-pqsE), expressed in E. coli BL21 Star (DE3)
Nature of the test: biolayer interferometry (Octet K2). It is filed as binding.

A further test has as its target T3, LasR (Pseudomonas aeruginosa, UniProt P25084).
T3 construct: His6-tagged LasR (pET30a-His6-LasR), expressed in E. coli BL21 Star (DE3)
Nature of the test: biolayer interferometry (Octet K2). It is filed as binding. On the technique in general: BLI is a label-free optical method that tracks binding on a fibre tip over time.

In a further test the target is T4, PqsA G279A (Pseudomonas aeruginosa, UniProt Q9I4X3, G279A).
T4 construct: His6-tagged PqsA G279A (pET30a-His6-pqsA^G279A), expressed in E. coli BL21 Star (DE3)
T4 sequence (Q9I4X3 1-517 G279A): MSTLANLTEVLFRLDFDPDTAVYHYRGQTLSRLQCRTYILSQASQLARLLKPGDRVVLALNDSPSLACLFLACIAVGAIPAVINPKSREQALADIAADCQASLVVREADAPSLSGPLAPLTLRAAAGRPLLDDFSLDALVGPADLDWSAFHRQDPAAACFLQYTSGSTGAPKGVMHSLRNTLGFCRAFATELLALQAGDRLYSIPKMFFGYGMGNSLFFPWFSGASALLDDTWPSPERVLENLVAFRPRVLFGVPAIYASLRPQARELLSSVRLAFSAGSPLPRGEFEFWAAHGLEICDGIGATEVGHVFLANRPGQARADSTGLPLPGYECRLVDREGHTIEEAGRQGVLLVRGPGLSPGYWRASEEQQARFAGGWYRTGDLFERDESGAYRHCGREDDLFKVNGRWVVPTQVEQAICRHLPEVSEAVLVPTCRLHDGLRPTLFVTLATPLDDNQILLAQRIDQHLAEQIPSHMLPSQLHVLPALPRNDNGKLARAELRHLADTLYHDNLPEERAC
The test can be described thus: biolayer interferometry (Octet K2). It is filed as binding.

In test [1] the target is T5, anthranilyl-CoA synthetase PqsA (Pseudomonas aeruginosa, UniProt Q9I4X3).
T5 construct: His6-tagged PqsA (pET30a-His6-pqsA), expressed in E. coli BL21 Star (DE3)
Nature of the test: biolayer interferometry (Octet K2). It is filed as binding.

Another test concerns the target T6, PqsA D299A (Pseudomonas aeruginosa, UniProt Q9I4X3, D299A).
T6 construct: His6-tagged PqsA D299A (pET30a-His6-pqsA^D299A), expressed in E. coli BL21 Star (DE3)
T6 sequence (Q9I4X3 1-517 D299A): T4 sequence (Q9I4X3 1-517 G279A)
The test can be described thus: biolayer interferometry (Octet K2). It is filed as binding.

For the next test, the target named is T7, LasI (Pseudomonas aeruginosa, UniProt P33883).
T7 construct: His6-tagged LasI (pET30a-His6-lasI)
Nature of the test: biochemical. Set-up: biolayer interferometry (BLI) binding to purified His6-tagged protein. On the procedure:
(§1) [compound left out]. Cell debris was removed by centrifugation. […] The purified protein was assessed by SDS-PAGE.

In the next test the target is T8, PqsD (Pseudomonas aeruginosa, UniProt P20582).
T8 construct: His6-tagged PqsD (pET30a-His6-pqsD)
Nature of the test: biochemical. Set-up: biolayer interferometry (BLI) binding to purified His6-tagged protein. The procedure:
as §1

The target of another test is T9, PqsR (Pseudomonas aeruginosa, UniProt Q9I4X0).
T9 construct: gene mvfR; His6-tagged PqsR (pET30a-His6-pqsR)
The test can be described thus: biochemical. Further details: biolayer interferometry (BLI) binding to purified His6-tagged protein. The procedure:
as §1

A further test has as its target T10, RhlI (Pseudomonas aeruginosa, UniProt P54291).
T10 construct: His6-tagged RhlI (pET30a-His6-rhlI)
Nature of the test: biochemical. Set-up: biolayer interferometry (BLI) binding to purified His6-tagged protein. The procedure:
as §1

The target of another test is RhlR (Pseudomonas aeruginosa, UniProt P54292). The test can be described thus: biochemical.

In the test on MDR P. aeruginosa C218, `CC1COc2c(N3CCN(C)CC3)c(F)cc3c(=O)c(C(=O)O)cn1c23` (centres unmarked) [Ofloxacin] showed an MIC of 500 µg/mL (≈ 1380 µM).

Take `C[C@H]1[C@H](NC(=O)/C(=N\OC(C)(C)C(=O)O)c2csc(N)n2)C(=O)N1S(=O)(=O)O` [Aztreonam]: the MIC in the test on MDR P. aeruginosa C218 worked out at 4000 µg/mL (≈ 9190 µM). By Kd is commonly meant the free concentration of one partner at which half of the binding sites on the other are occupied at equilibrium, for simple one-to-one binding. Higher therefore signals lower affinity. As for `c1ccc2c(c1)[nH]c1cnccc12` [norharmane], the Kd is 0.5 mM on PqsE; 2.29 mM on LasR; 1.1 mM at PqsA G279A; 0.00254 mM in test [1]; 1.65 mM on PqsA D299A; above 1 mM on LasI. Besides, the Kd at PqsD, at PqsR, at RhlI and at RhlR was above 1 mM in each case. Turning to `C[C@@H](O)[C@H]1C(=O)N2C(C(=O)O)=C(SCCNC=N)C[C@H]12` [Imipenem], the MIC with MDR P. aeruginosa C218 was found to be 500 µg/mL (≈ 1670 µM). Turning to `C[C@H]1COc2c(N3CCN(C)CC3)c(F)cc3c(=O)c(C(=O)O)cn1c23` [Levofloxacin], the MIC with MDR P. aeruginosa C218 stood at 62.5 µg/mL (≈ 173 µM). The same measure, in the same setting: the value for `NC[C@H]1O[C@H](O[C@H]2[C@H](O)[C@@H](O[C@H]3O[C@H](CO)[C@@H](O)[C@H](N)[C@H]3O)[C@H](N)C[C@@H]2N)[C@H](O)[C@@H](O)[C@@H]1O` [Kanamycin] was 310 µg/mL (≈ 640 µM); that for `C[C@@H](O)[C@H]1C(=O)N2C(C(=O)O)=C(S[C@@H]3CN[C@H](CNS(N)(=O)=O)C3)[C@H](C)[C@H]12` [Doripenem] was 500 µg/mL (≈ 1190 µM); that for `CCn1cc(C(=O)O)c(=O)c2cc(F)c(N3CCNC(C)C3)c(F)c21` (centres unmarked) [Lomefloxacin] was 125 µg/mL (≈ 356 µM). Take `CCN1CCN(C(=O)N[C@@H](C(=O)N[C@@H]2C(=O)N3[C@@H]2SC(C)(C)[C@@H]3C(=O)O)c2ccccc2)C(=O)C1=O` [Piperacillin]: the MIC in the test with MDR P. aeruginosa C218 was found to be 4000 µg/mL (≈ 7730 µM). Compound `CC1(C)S[C@@H]2[C@H](NC(=O)[C@H](NC(=O)N3CCNC3=O)c3ccccc3)C(=O)N2[C@H]1C(=O)O` [Azlocillin] came in with an MIC with MDR P. aeruginosa C218 of 4000 µg/mL (≈ 8670 µM). In the test with MDR P. aeruginosa C218, `C[C@@H](O)[C@H]1C(=O)N2C(C(=O)O)=C(S[C@@H]3CN[C@H](C(=O)N(C)C)C3)[C@H](C)[C@H]12` [Meropenem] came in with an MIC of 500 µg/mL (≈ 1300 µM). Same read-out and setting: the value for `CO/N=C(\C(=O)N[C@@H]1C(=O)N2C(C(=O)[O-])=C(C[N+]3(C)CCCC3)CS[C@H]12)c1csc(N)n1` [Cefepime] was 4000 µg/mL (≈ 8320 µM); that for `COc1c(N2CCNC(C)C2)c(F)cc2c(=O)c(C(=O)O)cn(C3CC3)c12` (centres unmarked) [Gatifloxacin] was 62.5 µg/mL (≈ 166 µM). Still for that read-out and setting: the value for `CC(C)(O/N=C(\C(=O)N[C@@H]1C(=O)N2C(C(=O)[O-])=C(C[n+]3ccccc3)CS[C@H]12)c1csc(N)n1)C(=O)O` [Ceftazidime] was 500 µg/mL (≈ 915 µM); that for `CCn1cc(C(=O)O)c(=O)c2cc(F)c(N3CCNCC3)cc21` [Norfloxacin] was 4000 µg/mL (≈ 12500 µM); that for `NCC[C@H](O)C(=O)N[C@@H]1C[C@H](N)[C@@H](O[C@H]2O[C@H](CN)[C@@H](O)[C@H](O)[C@H]2O)[C@H](O)[C@H]1O[C@H]1O[C@H](CO)[C@@H](O)[C@H](N)[C@H]1O` [Amikacin] was 7.8 µg/mL (≈ 13.3 µM). `NC[C@H]1O[C@H](O[C@H]2[C@H](O)[C@@H](O[C@H]3O[C@H](CO)[C@@H](O)[C@H](N)[C@H]3O)[C@H](N)C[C@@H]2N)[C@H](N)C[C@@H]1O` [Tobramycin]: the MIC against MDR P. aeruginosa C218 worked out at 3.9 µg/mL (≈ 8.34 µM).
